From ChEMBL document CHEMBL2163249, “Exploration of natural compounds as sources of new bifunctional scaffolds targeting cholinesterases and beta amyloid aggregation: the case of chelerythrine” (Bioorg Med Chem, 2012) come the findings set out here.

Assay [1] addresses Cholinesterase (Equus caballus) (UniProt P81908). The note with it: at 2 mg/mL.
Description: Inhibition of horse BChE at 2 mg/ml by Ellman's method
Assay [2] deals with Acetylcholinesterase (Electrophorus electricus) (UniProt O42275). As to conditions: at 2 mg/mL.
Description: Inhibition of electric eel AChE at 2 mg/ml by Ellman's method

Chain of Cholinesterase (Equus caballus) (P81908 whole entry): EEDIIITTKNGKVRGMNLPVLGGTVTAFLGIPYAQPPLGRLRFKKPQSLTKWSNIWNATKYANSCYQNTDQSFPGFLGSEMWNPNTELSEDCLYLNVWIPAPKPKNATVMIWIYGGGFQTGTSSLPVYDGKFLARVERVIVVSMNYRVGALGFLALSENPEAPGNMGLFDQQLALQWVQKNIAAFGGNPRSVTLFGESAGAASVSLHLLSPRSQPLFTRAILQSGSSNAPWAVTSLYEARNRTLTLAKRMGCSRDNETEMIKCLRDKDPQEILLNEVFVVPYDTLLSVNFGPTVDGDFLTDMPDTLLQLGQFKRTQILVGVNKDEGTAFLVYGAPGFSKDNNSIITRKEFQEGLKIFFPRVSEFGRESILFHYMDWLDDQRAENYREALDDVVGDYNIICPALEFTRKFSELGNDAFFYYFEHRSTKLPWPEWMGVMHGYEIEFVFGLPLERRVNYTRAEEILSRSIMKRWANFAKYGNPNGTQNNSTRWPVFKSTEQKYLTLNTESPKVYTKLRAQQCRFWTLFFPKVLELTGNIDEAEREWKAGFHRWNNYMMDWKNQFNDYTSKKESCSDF

Regarding `C[N+]1([O-])[C@@H]2CC[C@H]1C[C@H](OC(=O)C(CO)c1ccccc1)C2` (stereo partly specified), the inhibition was -2.78% in assay [1] and 25.9% in assay [2].

Take `CC1=C(/C=C/C(C)=C/C=C/C(C)=C/C(=O)O)C(C)(C)CCC1`: the inhibition is -0.7% in assay [1] and 9.3% in assay [2].

In the case of `O=c1c(O[C@@H]2O[C@H](CO)[C@@H](O)[C@H](O)[C@H]2O)c(-c2ccc(O)c(O)c2)oc2cc(O)cc(O)c12`, the inhibition in assay [1] amounted to 2.54%; in assay [2], 0.12%.

`O=C(/C=C/c1ccc(O)c(O)c1)O[C@@H]1C[C@](O)(C(=O)O)C[C@@H](O)[C@H]1O`: the inhibition in assay [1] was 4.8%; in assay [2] it was 10.8%.

As for `COc1c(O)cc(O)c2c(=O)cc(-c3ccccc3)oc12`, the values for the inhibition in assay [1] and in assay [2] were -5.86% and -1.48%, respectively.

For `CC(=O)OC[C@@]1(O)C[C@@]23CC[C@@H]4c5ccoc5C=C[C@@]4(C)[C@@H]2CC[C@@H]1C3`, the results for the inhibition in assay [1] and in assay [2] were 1.7% and 14.1%, respectively.

Consider `COc1ccc2c(c1OC)C(=O)O[C@H]2[C@@H]1c2cc3c(cc2CCN1C)OCO3`, for which the inhibition was -1.4% in assay [1] and 9.75% in assay [2].

`C[C@@H]1CC[C@H]2[C@@H](C)C(=O)O[C@@H]3O[C@@]4(C)CC[C@@H]1[C@]32OO4`: the inhibition was determined as 35.6% in assay [1] and 2.43% in assay [2].

As to `CC1(C)[C@@H](O)C[C@H]2[C@](C)(O)[C@@H]3CC[C@@H]4[C@@H](O)[C@@]3(C[C@@H](O)[C@@]21O)C[C@@]4(C)O`, the inhibition in assay [1] is 4.52%; in assay [2], -8.91%.

As to `CO[C@H](C(=O)[C@@H](O)[C@@H](C)O)[C@@H]1Cc2cc3cc(O[C@H]4C[C@@H](O[C@H]5C[C@@H](O)[C@H](O)[C@@H](C)O5)[C@@H](O)[C@@H](C)O4)c(C)c(O)c3c(O)c2C(=O)[C@H]1O[C@H]1C[C@@H](O[C@H]2C[C@@H](O[C@H]3C[C@](C)(O)[C@H](O)[C@@H](C)O3)[C@H](O)[C@@H](C)O2)[C@H](O)[C@@H](O)O1`, the figures for the inhibition in assay [1] and in assay [2] were 6.61% and -3.51%, respectively.

On to `CC[C@]1(O)C[C@H]2CN(CCc3c([nH]c4ccccc34)[C@@](C(=O)OC)(c3cc4c(cc3OC)N(C=O)[C@H]3[C@@](O)(C(=O)OC)[C@H](OC(C)=O)[C@]5(CC)C=CCN6CC[C@]43[C@@H]65)C2)C1`, for which the inhibition in assay [1] turned out to be 2.81%; in assay [2], 10.9%.

For the compound `CC(C)C[C@H](NC(=O)[C@H]1O[C@@H]1C(=O)O)C(=O)NCCCCN=C(N)N`, the inhibition in assay [1] was 12.1%; in assay [2], -7.43%.

For `CC[C@]1(O)C[C@@H]2CN(CCc3c([nH]c4ccccc34)[C@@](C(=O)OC)(c3cc4c(cc3OC)N(C)[C@H]3[C@@](O)(C(=O)OC)[C@H](OC(C)=O)[C@]5(CC)C=CCN6CC[C@]43[C@@H]65)C2)C1`, the inhibition in assay [1] was determined as 0.36%; in assay [2], 15.4%.

For `COc1cc(-c2oc3cc(O)ccc3c(=O)c2O)ccc1O`, the inhibition is 12.8% in assay [1] and 3.26% in assay [2].

Regarding `CO[C@H]1[C@H](O)[C@H](O[C@H]2CC[C@@]3(C=O)[C@H](CC[C@@H]4[C@@H]3CC[C@]3(C)[C@@H](C5=CC(=O)OC5)CC[C@]43O)C2)O[C@@H](C)[C@@H]1O`, the inhibition in assay [1] was -1.96%; in assay [2], 4.45%.

As to `C=C1C(=O)[C@]23[C@H](CC[C@@H]1[C@@H]2O)[C@]12CO[C@@]3(O)[C@H](O)[C@H]1C(C)(C)CC[C@@H]2O`, the inhibition in assay [1] is -8.92%; in assay [2], -3.57%.

For the compound `CO[C@H]1C[C@@H]2CC[C@@H](C)[C@@](O)(O2)C(=O)C(=O)N2CCCC[C@H]2C(=O)O[C@H]([C@H](C)C[C@@H]2CC[C@@H](O)[C@H](OC)C2)CC(=O)[C@H](C)/C=C(\C)[C@@H](O)[C@@H](OC)C(=O)[C@H](C)C[C@H](C)/C=C/C=C/C=C/1C`, the inhibition in assay [1] was 4.03%; in assay [2] it was 18.7%.

For `CCCCC[C@H](O)/C=C/[C@H]1[C@H](O)CC(=O)[C@@H]1CCCCCCC(=O)O`, the inhibition is -1.69% in assay [1] and 16.6% in assay [2].

On to `CCn1cc(C(=O)O)c(=O)c2ccc(C)nc21`, for which the inhibition in assay [1] is -8.73%; in assay [2], 0.82%.

Consider `C[C@@H]1CC[C@H]2[C@](C)(CO)[C@@H](O)CC[C@]2(C)[C@@]12CC[C@@](CO)(CCO)O2`, for which the inhibition in assay [1] is 6.75%; in assay [2], -4.53%.

Take `N[C@H]1CONC1=O`: the inhibition in assay [1] was -5.13%; in assay [2] it was 1.18%.

With `COc1ccc2cc1Oc1ccc(cc1)C[C@H]1c3cc(c(OC)cc3CCN1C)Oc1c(OC)c(OC)cc3c1[C@H](C2)N(C)CC3`, the figures for the inhibition in assay [1] and in assay [2] were -1.1% and 15.5%, respectively.

On to `CC(C)[C@@]1(NC(=O)[C@@H]2C[C@@H]3c4cccc5[nH]cc(c45)C[C@H]3N(C)C2)O[C@@]2(O)[C@@H]3CCCN3C(=O)[C@H](Cc3ccccc3)N2C1=O`, for which the inhibition was 0.35% in assay [1] and -1.54% in assay [2].

For `COc1ccc(-c2coc3cc(O)ccc3c2=O)cc1`, the results for the inhibition in assay [1] and in assay [2] were 0.57% and 1.62%, respectively.

Regarding `Cc1c2c(c(O)c3c(O)cccc13)C(=O)O[C@H]2[C@@H]1[C@H](O)C(=O)C(C(N)=O)=C(O)[C@H]1N(C)C`, the inhibition in assay [1] is 7.3%; in assay [2] it was 16.9%.

Consider `O=C1C[C@@H](c2ccc(O)c(O)c2)Oc2c1ccc(O[C@@H]1O[C@H](CO)[C@@H](O)[C@H](O)[C@H]1O)c2O`, for which the inhibition in assay [1] is 3.1%; in assay [2] it was 8.08%.

For `C[C@@H]1C[C@H]2O[C@@H]2/C=C\C=C\C(=O)Cc2c(Cl)c(O)cc(O)c2C(=O)O1`, the inhibition is -1.22% in assay [1] and 17.4% in assay [2].

In the case of `CN[C@@H]1[C@H](O)[C@H](NC)[C@H]2O[C@@]3(O)C(=O)C[C@@H](C)O[C@H]3O[C@@H]2[C@H]1O`, the inhibition in assay [1] was -9.67%; in assay [2], 15%.

Turning to `C[C@@]1(CO)[C@H](O)CC[C@@]2(C)[C@H]1CC[C@H]1C[C@@H]3C[C@@]12CC[C@]3(O)CO`, the inhibition in assay [1] turned out to be 13.5%; in assay [2], 8.45%.

As to `CCN1C[C@]2(C)CC[C@H](O)[C@]34C1[C@@H](C[C@H]23)[C@@]1(O)C[C@H](OC)[C@H]2C[C@@H]4[C@@H]1[C@H]2O`, the values for the inhibition in assay [1] and in assay [2] were -5.97% and 20%, respectively.

`CC1=CC(=O)C2=C(C)C[C@H](O)[C@@H]3[C@H](OC(=O)[C@H]3C)[C@@H]12`: the inhibition in assay [1] is 2.68%; in assay [2], 29.5%.

As to `O=c1cc(-c2ccccc2)oc2cc(O)ccc12`, the values for the inhibition in assay [1] and in assay [2] were -0.25% and 24.4%, respectively.

On to `CN1C[C@H](CO)C[C@@H]2c3cccc4[nH]cc(c34)C[C@H]21`, for which the inhibition in assay [1] came out at 15.3%; in assay [2], 6.82%.

`C=C[C@H]1CN2CC[C@H]1C[C@H]2[C@H](O)c1ccnc2ccc(OC)cc12`: the results for the inhibition in assay [1] and in assay [2] were 24.7% and 15.8%, respectively.

For the compound `COc1cc2ccc(=O)oc2cc1O`, the inhibition in assay [1] turned out to be 0.6%; in assay [2] it was 4.78%.

Consider `COc1ccc(-c2cc(=O)c3c(O)cc(O[C@@H]4O[C@H](CO[C@@H]5O[C@@H](C)[C@H](O)[C@@H](O)[C@H]5O)[C@@H](O)[C@H](O)[C@H]4O)cc3o2)cc1O`, for which the inhibition in assay [1] was 7.92%; in assay [2], 9.59%.

On to `CC(C)=CCCC1=CC(=O)c2c(O)ccc(O)c2C1=O`, for which the inhibition was -2.66% in assay [1] and 1.52% in assay [2].

Turning to `C/C1=C/CCC(C)(O)/C=C\C(C(C)C)C(OC(=O)c2ccc(O)cc2)C1` (stereo unspecified), the inhibition in assay [1] is -0.77%; in assay [2], 23.7%.

For the compound `CN1Cc2c(ccc3c2OCO3)[C@@H]2[C@H]1c1cc3c(cc1C[C@@H]2O)OCO3`, the inhibition in assay [1] came to 6.72%; in assay [2] it was 29.8%.

For `CCCCCCCCCCCCC/C=C/[C@@H](O)[C@H](CO)NC(=O)CCCCC`, the inhibition in assay [1] amounted to 4.36%; in assay [2] it was 9.07%.

With `COc1ccc(-c2cc(=O)c3c(O)cc(O)cc3o2)cc1O`, the inhibition in assay [1] is -6.13%; in assay [2], -8.89%.

Turning to `C=C1[C@H]2C[C@@]3([C@@H]1O)[C@@H](CC2=O)[C@]12[C@@H]4C[C@H]3[C@H]1N(CC)C[C@]4(C)CC[C@@H]2O`, the inhibition in assay [1] was found to be 1.01%; in assay [2] it was 26.3%.

For `CC[C@]12CCCN3CCc4c(n(c5ccccc45)[C@@](O)(C(=O)OC)C1)[C@@H]32`, the inhibition was 3.22% in assay [1] and 7.29% in assay [2].

With `COc1ccc(-c2cc(=O)c3c(O)cc(O)cc3o2)cc1`, the inhibition in assay [1] is -2.17%; in assay [2] it was -1.38%.

Turning to `COc1ccc(/C=C/C(=O)c2c(O)cc(OC)cc2OC)cc1`, the inhibition was -9.95% in assay [1] and -6.03% in assay [2].

As to `C/C=C(/C)C(=O)O[C@H]1CC[C@@]2(C)[C@@H]3CC[C@H]4[C@]5(O)C[C@H](O)[C@@]6(O)[C@@H](CN7C[C@@H](C)CC[C@H]7[C@@]6(C)O)[C@]5(O)C[C@@]42O[C@]13O`, the inhibition in assay [1] was 6.44%; in assay [2], -3.72%.

As for `CC(=O)C1=C(O)C=C2Oc3c(C(C)=O)c(O)c(C)c(O)c3[C@@]2(C)C1=O`, the inhibition in assay [1] was 4.28%; in assay [2] it was 2.06%.

As for `C[C@@H]1C(=O)O[C@H]2[C@H](O)[C@@]34[C@H]5C[C@@H](C(C)(C)C)[C@]36[C@@H](OC(=O)[C@@H]6O)O[C@@]4(C(=O)O5)[C@@]12O`, the inhibition in assay [1] is 9.99%; in assay [2], -7.35%.

Turning to `Cc1cc(O)c2c(=O)c3c(O)cc(O)c4c5c(O)cc(O)c6c(=O)c7c(O)cc(C)c8c1c2c(c34)c(c78)c65`, the inhibition was 14.3% in assay [1] and -7.15% in assay [2].

Consider `Cc1c(C(=O)O)c(O)cc2c1C(=O)c1c(O)c([C@@H]3O[C@H](CO)[C@@H](O)[C@H](O)[C@H]3O)c(O)c(O)c1C2=O`, for which the inhibition was -1.98% in assay [1] and 21.5% in assay [2].

On to IVERMECTIN, for which the inhibition in assay [1] is -3.98%; in assay [2], 17.8%.

Turning to `COC1=C[C@@H](C)[C@@H]2C[C@H]3OC(=O)C[C@H]4C(C)=C(OC)C(=O)[C@H]([C@@]2(C)C1=O)[C@@]34C`, the inhibition is 4.69% in assay [1] and 24.7% in assay [2].

With `O=C1CCC[C@@H]2[C@H]3CCCN4CCC[C@@H](CN12)[C@@H]34`, the inhibition in assay [1] is 22.4%; in assay [2], -1.14%.

As a reminder, the inhibition is the drop in the measured response relative to a control, in per cent.
